From the supplement of paper PMC11061612

How the values were obtained:
Paclitaxel = compound: CC(=O)O[C@H]1C(=O)[C@@]2(C)[C@H]([C@H](OC(=O)c3ccccc3)[C@]3(O)C[C@H](OC(=O)[C@H](O)[C@@H](NC(=O)c4ccccc4)c4ccccc4)C(C)=C1C3(C)C)[C@]1(OC(C)=O)CO[C@@H]1C[C@@H]2O [Paclitaxel]; conditions: max 3 µM
Summary of the method: (§1)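 Cancer cell lines were plated in 1536-well plates in 7.5 μl of DMEM/F12 or RPMI with 10% FBS and kept 24 hours at 37°C and 5% CO2 before 72 hours of dosing, with final DMSO typically 0.2%. CellTiter-Glo 2.0 luminescence measured viability, scaled between blank-well and DMSO-well means. Dose responses were fitted to a two-parameter logistic curve with a non-linear mixed effects model. This fit gives the single-agent IC50.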

Savolitinib = compound: C[C@@H](c1ccc2nccn2c1)n1nnc2ncc(-c3cnn(C)c3)nc21 [Savolitinib]; conditions: max 1 µM
Summary of the method: as §1

Etoposide = compound: COc1cc([C@@H]2c3cc4c(cc3[C@@H](O[C@@H]3O[C@@H]5CO[C@@H](C)O[C@H]5[C@H](O)[C@H]3O)[C@H]3COC(=O)[C@H]23)OCO4)cc(OC)c1O [Etoposide]; conditions: max 10 µM
Summary of the method: as §1

AZD7648 = compound: Cc1cc2ncnn2cc1Nc1ncc2c(n1)n(C1CCOCC1)c(=O)n2C [AZD7648]; conditions: max 10 µM
Summary of the method: as §1

AZD1390 = compound: CC(C)n1c(=O)n(C)c2cnc3cc(F)c(-c4ccc(OCCCN5CCCCC5)nc4)cc3c21 [AZD1390]; conditions: max 0.3 µM
Summary of the method: as §1

SRA737 = compound: N#Cc1cnc(Nc2cc(NC[C@H]3CNCCO3)c(C(F)(F)F)cn2)cn1 [SRA737]; conditions: max 10 µM
Summary of the method: as §1

AZD5153 = compound: COc1nnc2ccc(N3CCC(c4ccc(OCCN5CCN(C)C(=O)[C@H]5C)cc4)CC3)nn12 [AZD5153]; conditions: max 1 µM
Summary of the method: as §1

AZD4320 = compound: CN(CC[C@H](CSC1=CC=CC=C1)NC2=C(C=C(C=C2)S(=O)(=O)NC(=O)C3=CC=C(C=C3)N4CCC(CC4)[C@H](C5=CC=CC=C5C6=CC=C(C=C6)Cl)O)S(=O)(=O)C(F)(F)F)CCO [AZD4320]; conditions: max 1 µM
Summary of the method: as §1

Venetoclax = compound: CC1(C)CCC(CN2CCN(c3ccc(C(=O)NS(=O)(=O)c4ccc(NCC5CCOCC5)c([N+](=O)[O-])c4)c(Oc4cnc5[nH]ccc5c4)c3)CC2)=C(c2ccc(Cl)cc2)C1 [Venetoclax]; conditions: max 1 µM
Summary of the method: as §1

Alisertib = compound: COc1cc(Nc2ncc3c(n2)-c2ccc(Cl)cc2C(c2c(F)cccc2OC)=NC3)ccc1C(=O)O [Alisertib]; conditions: max 10 µM
Summary of the method: as §1

Trametinib = compound: CC(=O)Nc1cccc(-n2c(=O)n(C3CC3)c(=O)c3c(Nc4ccc(I)cc4F)n(C)c(=O)c(C)c32)c1 [Trametinib]; conditions: max 1 µM
Summary of the method: as §1

Olaparib = compound: O=C(c1cc(Cc2n[nH]c(=O)c3ccccc23)ccc1F)N1CCN(C(=O)C2CC2)CC1 [Olaparib]; conditions: max 10 µM
Summary of the method: as §1

SN-38 = compound: CCc1c2c(nc3ccc(O)cc13)-c1cc3c(c(=O)n1C2)COC(=O)[C@]3(O)CC [SN-38]; conditions: max 0.3 µM
Summary of the method: as §1

[1] = compound: O=C(Nc1ccc2[nH]nc(-c3ccncc3)c2c1)[C@@H]1CCN(CC(=O)N2CCN(c3ccc(-c4ncccn4)cc3)CC2)C1; conditions: max 5 µM
Summary of the method: as §1

Prexasertib = compound: COc1cccc(OCCCN)c1-c1cc(Nc2cnc(C#N)cn2)n[nH]1 [Prexasertib]; conditions: max 1 µM
Summary of the method: as §1

AZD8186 = compound: C[C@@H](Nc1cc(F)cc(F)c1)c1cc(C(=O)N(C)C)cc2c(=O)cc(N3CCOCC3)oc12 [AZD8186]; conditions: max 10 µM
Summary of the method: as §1

Palbociclib = compound: CC(=O)c1c(C)c2cnc(Nc3ccc(N4CCNCC4)cn3)nc2n(C2CCCC2)c1=O [Palbociclib]; conditions: max 10 µM
Summary of the method: as §1

AZD5363 = compound: C1CN(CCC1(C(=O)N[C@@H](CCO)C2=CC=C(C=C2)Cl)N)C3=NC=NC4=C3C=CN4 [AZD5363]; conditions: max 10 µM
Summary of the method: as §1

AZD0156 = compound: CN(C)CCCOc1ccc(-c2ccc3ncc4c(c3c2)n(C2CCOCC2)c(=O)n4C)cn1 [AZD0156]; conditions: max 3 µM
Summary of the method: as §1

SG3199 = compound: CC1=CN2[C@@H](C1)C=NC3=CC(=C(C=C3C2=O)OC)OCCCCCOC4=C(C=C5C(=C4)N=C[C@@H]6CC(=CN6C5=O)C)OC [SG3199]; conditions: max 0.001 µM
Summary of the method: as §1

AZD2811 = compound: CCN(CCO)CCCOc1ccc2c(Nc3cc(CC(=O)Nc4cccc(F)c4)[nH]n3)ncnc2c1 [AZD2811]; conditions: max 1 µM
Summary of the method: as §1

Lapatinib = compound: CS(=O)(=O)CCNCc1ccc(-c2ccc3ncnc(Nc4ccc(OCc5cccc(F)c5)c(Cl)c4)c3c2)o1 [Lapatinib]; conditions: max 10 µM
Summary of the method: as §1

Gemcitabine = compound: Nc1ccn([C@@H]2O[C@H](CO)[C@@H](O)C2(F)F)c(=O)n1 [Gemcitabine]; conditions: max 0.3 µM
Summary of the method: as §1

Selumetinib = compound: Cn1cnc2c(F)c(Nc3ccc(Br)cc3Cl)c(C(=O)NOCCO)cc21 [Selumetinib]; conditions: max 10 µM
Summary of the method: as §1

AZD6738 = compound: C[C@@H]1COCCN1C2=NC(=NC(=C2)C3(CC3)[S@](=N)(=O)C)C4=C5C=CNC5=NC=C4 [AZD6738]; conditions: max 10 µM
Summary of the method: as §1

Crizotinib = compound: C[C@@H](Oc1cc(-c2cnn(C3CCNCC3)c2)cnc1N)c1c(Cl)ccc(F)c1Cl [Crizotinib]; conditions: max 10 µM
Summary of the method: as §1

Dasatinib = compound: CC1=C(C(=CC=C1)Cl)NC(=O)C2=CN=C(S2)NC3=CC(=NC(=N3)C)N4CCN(CC4)CCO [Dasatinib]; conditions: max 2 µM
Summary of the method: as §1

AZD5991 = compound: Cc1c2c(nn1C)CSCc1cc(n(C)n1)CSc1cc(c3ccccc3c1)OCCCc1c(C(=O)O)n(C)c3c-2c(Cl)ccc13 [AZD5991]; conditions: max 1 µM
Summary of the method: as §1

Doxorubicin = compound: COc1cccc2c1C(=O)c1c(O)c3c(c(O)c1C2=O)C[C@@](O)(C(=O)CO)C[C@@H]3O[C@H]1C[C@H](N)[C@H](O)[C@H](C)O1 [Doxorubicin]; conditions: max 1 µM
Summary of the method: as §1

Carboplatin = compound: C1CC(C1)(C(=O)[O-])C(=O)[O-].N.N.[Pt+2] [Carboplatin]; conditions: max 10 µM
Summary of the method: as §1

Taselisib = compound: Cc1nc(-c2cn3c(n2)-c2ccc(-c4cnn(C(C)(C)C(N)=O)c4)cc2OCC3)n(C(C)C)n1 [Taselisib]; conditions: max 10 µM
Summary of the method: as §1

MK-2206 = compound: NC1(c2ccc(-c3nc4ccn5c(=O)[nH]nc5c4cc3-c3ccccc3)cc2)CCC1 [MK-2206]; conditions: max 10 µM
Summary of the method: as §1

Gefitinib = compound: COc1cc2ncnc(Nc3ccc(F)c(Cl)c3)c2cc1OCCCN1CCOCC1 [Gefitinib]; conditions: max 10 µM
Summary of the method: as §1

5-Fluorouracil = compound: O=c1[nH]cc(F)c(=O)[nH]1 [5-Fluorouracil]; conditions: max 20 µM
Summary of the method: as §1

AZD1775 = compound: C=CCn1c(=O)c2cnc(Nc3ccc(N4CCN(C)CC4)cc3)nc2n1-c1cccc(C(C)(C)O)n1 [AZD1775]; conditions: max 3 µM
Summary of the method: as §1

Row | Cell Line | IC50, cell viability 72 h (Paclitaxel) | IC50, cell viability 72 h (Savolitinib) | IC50, cell viability 72 h (Etoposide) | IC50, cell viability 72 h (AZD7648) | IC50, cell viability 72 h (AZD1390) | IC50, cell viability 72 h (SRA737) | IC50, cell viability 72 h (AZD5153) | IC50, cell viability 72 h (AZD4320) | IC50, cell viability 72 h (Venetoclax) | IC50, cell viability 72 h (Alisertib) | IC50, cell viability 72 h (Trametinib) | IC50, cell viability 72 h (Olaparib) | IC50, cell viability 72 h (SN-38) | IC50, cell viability 72 h [1] | IC50, cell viability 72 h (Prexasertib) | IC50, cell viability 72 h (AZD8186) | IC50, cell viability 72 h (Palbociclib) | IC50, cell viability 72 h (AZD5363) | IC50, cell viability 72 h (AZD0156) | IC50, cell viability 72 h (SG3199) | IC50, cell viability 72 h (AZD2811) | IC50, cell viability 72 h (Lapatinib) | IC50, cell viability 72 h (Gemcitabine) | IC50, cell viability 72 h (Selumetinib) | IC50, cell viability 72 h (AZD6738) | IC50, cell viability 72 h (Crizotinib) | IC50, cell viability 72 h (Dasatinib) | IC50, cell viability 72 h (AZD5991) | IC50, cell viability 72 h (Doxorubicin) | IC50, cell viability 72 h (Carboplatin) | IC50, cell viability 72 h (Taselisib) | IC50, cell viability 72 h (MK-2206) | IC50, cell viability 72 h (Gefitinib) | IC50, cell viability 72 h (5-Fluorouracil) | IC50, cell viability 72 h (AZD1775)
1 | IM-9 (Non-Cancerous) | 4.97 nM | > 1000 nM | 0.0974 µM | > 10 µM | > 300 nM | 1.52 µM | 89.4 nM | 769 nM | > 1000 nM | 0.0265 µM | 6.11 nM | > 10 µM | 2.53 nM | 72.7 nM | 12.4 nM | > 10 µM | 4.92 µM | 6.7 µM | > 3000 nM | > 1 nM | 71.3 nM | 7.53 µM | 1.97 nM | 0.218 µM | 1.04 µM | 0.819 µM | > 2000 nM | 667 nM | 52.8 nM | > 10 µM | > 10 µM | > 10 µM | > 10 µM | 5.02 µM | 205 nM
2 | JHH-2 (Hepatocellular Carcinoma) | 365 nM | > 1000 nM | > 10 µM | > 10 µM | > 300 nM | > 10 µM | > 1000 nM | > 1000 nM | > 1000 nM | > 10 µM | 181 nM | > 10 µM | 77.6 nM | 3440 nM | 57.5 nM | 0.297 µM | > 10 µM | 4.77 µM | > 3000 nM | > 1 nM | > 1000 nM | > 10 µM | > 300 nM | > 10 µM | 6.8 µM | > 10 µM | 188 nM | > 1000 nM | > 1000 nM | > 10 µM | 3.05 µM | 5.26 µM | > 10 µM | > 20 µM | 1860 nM
3 | JHU-022 (Oral Cavity Carcinoma) | 2090 nM | > 1000 nM | > 10 µM | > 10 µM | > 300 nM | > 10 µM | > 1000 nM | > 1000 nM | > 1000 nM | > 10 µM | 219 nM | > 10 µM | 35.7 nM | 2720 nM | 94.4 nM | > 10 µM | > 10 µM | > 10 µM | > 3000 nM | > 1 nM | > 1000 nM | 1.93 µM | 278 nM | 5.56 µM | > 10 µM | > 10 µM | 431 nM | > 1000 nM | 505 nM | > 10 µM | 0.515 µM | > 10 µM | 0.811 µM | > 20 µM | 1640 nM
